The target of data set [1] is Insulin-like growth factor 1 receptor (Homo sapiens, UniProt P08069). In words: Inhibition of IGF1R (unknown origin) using poly-G1 as substrate incubated for 10 mins prior to substrate addition measured after 1 hr by time-resolved fluorescence assay. Conditions: for pIC50: read-out: IC50; call rule not given here.
Data set [2] in a line: Half life in Sprague-Dawley rat at 2 mg/kg, iv. Also on record: dose 2 mg/kg, route intravenous. Conditions: in vivo. In kind it is ADME, organism-based.
Data set [3] in a line: Half life in Sprague-Dawley rat at 10 mg/kg, po. To be noted: in vivo. Further details: dose 10 mg/kg, route oral. It is filed as ADME, organism-based.
A short description of data set [4]: Volume of distribution at steady state in Sprague-Dawley rat at 2 mg/kg, iv. It is filed as ADME, organism-based. Also on record: dose 2 mg/kg, route intravenous. To be noted: in vivo, read-out: Vdss.
Data set [5] deals with MCF7. In words: Growth inhibition of human MCF7 cells after 48 hrs by propidium iodide staining-based fluorescence assay. In kind it is functional, cell-based. To be noted: MCF7, 48 h.
The target of data set [6] is Insulin receptor (Homo sapiens, UniProt P06213). The data set can be described thus: Inhibition of IR (unknown origin) using poly-G1 as substrate incubated for 10 mins prior to substrate addition measured after 1 hr by time-resolved fluorescence assay.
Data set [7] concerns A-431. The data set can be described thus: Growth inhibition of human A431 cells after 48 hrs by propidium iodide staining-based fluorescence assay. It is filed as functional, cell-based. To be noted: A-431, 48 h.
Data set [8] can be described thus: Growth inhibition of human COLO205 cells after 48 hrs by propidium iodide staining-based fluorescence assay. In kind it is functional, cell-based. Conditions: COLO 205, 48 h.
Data set [9] concerns MDA-MB-231. The data set can be described thus: Growth inhibition of human MDA-MB-231 cells after 48 hrs by propidium iodide staining-based fluorescence assay. In kind it is functional, cell-based. To be noted: MDA-MB-231, 48 h.
A short description of data set [10]: Oral bioavailability in Sprague-Dawley rat at 10 mg/kg. In kind it is ADME, organism-based. To be noted: in vivo.
A short description of data set [11]: Clearance in Sprague-Dawley rat at 2 mg/kg, iv. It is filed as ADME, organism-based. Also on record: dose 2 mg/kg, route intravenous. Conditions: in vivo.
The nature of data set [12]: Growth inhibition of human HCT116 cells after 48 hrs by propidium iodide staining-based fluorescence assay. In kind it is functional, cell-based. To be noted: HCT-116, 48 h.
A short description of data set [13]: Initial concentration in Sprague-Dawley rat at 2 mg/kg, iv. It is filed as ADME, organism-based. Further details: dose 2 mg/kg, route intravenous. Conditions: in vivo.
The nature of data set [14]: Growth inhibition of human H460 cells after 48 hrs by propidium iodide staining-based fluorescence assay. It is filed as functional, cell-based. Conditions: NCI-H460, 48 h.
The test system of data set [15] is NCI-H1975. The data set can be described thus: Growth inhibition of human NCI-H1975 cells after 48 hrs by propidium iodide staining-based fluorescence assay. It is filed as functional, cell-based. To be noted: NCI-H1975, 48 h.

pIC50: −log10 of the molar value.

As a reminder, the pIC50 is −log10 of the IC50, conventionally taken in molar units. What is called half-life is how long it takes for the measured level to halve. A word on the bioavailability: it is dose-corrected exposure relative to a reference, in per cent. The term clearance denotes the rate of elimination divided by the concentration. A higher clearance goes with a high capacity for elimination.

Insulin-like growth factor 1 receptor, sequence (P08069 31-736 limits assumed): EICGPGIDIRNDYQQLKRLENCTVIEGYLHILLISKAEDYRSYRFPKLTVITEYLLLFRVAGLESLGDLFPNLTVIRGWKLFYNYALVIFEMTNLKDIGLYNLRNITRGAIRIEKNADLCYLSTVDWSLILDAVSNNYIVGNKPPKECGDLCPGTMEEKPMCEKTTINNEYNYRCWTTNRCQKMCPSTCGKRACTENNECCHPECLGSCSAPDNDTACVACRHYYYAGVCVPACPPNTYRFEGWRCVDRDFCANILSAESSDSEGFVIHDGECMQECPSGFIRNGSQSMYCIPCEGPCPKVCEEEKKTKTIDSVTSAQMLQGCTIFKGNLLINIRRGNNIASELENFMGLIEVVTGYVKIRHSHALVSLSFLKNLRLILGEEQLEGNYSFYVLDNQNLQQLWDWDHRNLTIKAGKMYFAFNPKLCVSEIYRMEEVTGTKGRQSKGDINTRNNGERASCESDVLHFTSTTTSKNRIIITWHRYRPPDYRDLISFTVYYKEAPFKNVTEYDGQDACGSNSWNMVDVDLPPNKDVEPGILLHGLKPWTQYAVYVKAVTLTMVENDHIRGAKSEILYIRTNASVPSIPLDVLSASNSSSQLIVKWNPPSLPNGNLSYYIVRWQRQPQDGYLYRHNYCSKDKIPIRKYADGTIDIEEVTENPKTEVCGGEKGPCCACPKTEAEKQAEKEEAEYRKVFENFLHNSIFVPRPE
Insulin-like growth factor 1 receptor, sequence (P08069 741-1367 limits assumed): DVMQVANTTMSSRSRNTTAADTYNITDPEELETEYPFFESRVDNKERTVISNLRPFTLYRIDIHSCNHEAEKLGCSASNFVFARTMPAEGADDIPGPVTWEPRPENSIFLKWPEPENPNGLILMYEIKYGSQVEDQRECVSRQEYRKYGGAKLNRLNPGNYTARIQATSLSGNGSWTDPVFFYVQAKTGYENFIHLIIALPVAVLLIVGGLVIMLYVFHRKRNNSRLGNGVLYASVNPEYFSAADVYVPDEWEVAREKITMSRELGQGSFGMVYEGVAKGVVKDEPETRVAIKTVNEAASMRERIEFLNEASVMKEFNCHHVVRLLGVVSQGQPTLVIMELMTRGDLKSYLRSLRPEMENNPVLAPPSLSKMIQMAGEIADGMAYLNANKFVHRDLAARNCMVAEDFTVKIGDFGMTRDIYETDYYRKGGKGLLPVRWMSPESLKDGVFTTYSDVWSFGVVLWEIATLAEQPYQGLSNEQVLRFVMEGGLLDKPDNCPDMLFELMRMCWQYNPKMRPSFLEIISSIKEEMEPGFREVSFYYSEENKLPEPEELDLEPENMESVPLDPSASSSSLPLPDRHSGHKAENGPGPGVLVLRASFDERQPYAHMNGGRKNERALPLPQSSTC
Insulin receptor, sequence (P06213 28-758 limits assumed): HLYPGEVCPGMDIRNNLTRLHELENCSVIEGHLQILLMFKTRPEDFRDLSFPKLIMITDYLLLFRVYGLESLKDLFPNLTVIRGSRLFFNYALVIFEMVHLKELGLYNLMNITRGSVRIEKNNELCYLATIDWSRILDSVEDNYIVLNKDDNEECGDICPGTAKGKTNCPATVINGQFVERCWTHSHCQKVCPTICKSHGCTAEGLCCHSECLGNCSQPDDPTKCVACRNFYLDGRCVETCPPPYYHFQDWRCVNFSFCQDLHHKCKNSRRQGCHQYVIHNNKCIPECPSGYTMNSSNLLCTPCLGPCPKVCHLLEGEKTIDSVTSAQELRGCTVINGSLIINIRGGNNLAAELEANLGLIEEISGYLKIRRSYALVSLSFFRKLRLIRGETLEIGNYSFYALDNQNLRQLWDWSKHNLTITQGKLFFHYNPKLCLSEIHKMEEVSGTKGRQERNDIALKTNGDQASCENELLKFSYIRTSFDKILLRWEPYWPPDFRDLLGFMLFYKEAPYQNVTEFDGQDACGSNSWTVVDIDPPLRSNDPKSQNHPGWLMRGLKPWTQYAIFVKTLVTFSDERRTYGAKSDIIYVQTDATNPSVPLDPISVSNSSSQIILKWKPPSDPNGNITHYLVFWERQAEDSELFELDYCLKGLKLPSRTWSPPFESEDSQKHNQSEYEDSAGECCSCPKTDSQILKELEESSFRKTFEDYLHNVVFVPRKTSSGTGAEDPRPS
Insulin receptor, sequence (P06213 763-1382 limits assumed): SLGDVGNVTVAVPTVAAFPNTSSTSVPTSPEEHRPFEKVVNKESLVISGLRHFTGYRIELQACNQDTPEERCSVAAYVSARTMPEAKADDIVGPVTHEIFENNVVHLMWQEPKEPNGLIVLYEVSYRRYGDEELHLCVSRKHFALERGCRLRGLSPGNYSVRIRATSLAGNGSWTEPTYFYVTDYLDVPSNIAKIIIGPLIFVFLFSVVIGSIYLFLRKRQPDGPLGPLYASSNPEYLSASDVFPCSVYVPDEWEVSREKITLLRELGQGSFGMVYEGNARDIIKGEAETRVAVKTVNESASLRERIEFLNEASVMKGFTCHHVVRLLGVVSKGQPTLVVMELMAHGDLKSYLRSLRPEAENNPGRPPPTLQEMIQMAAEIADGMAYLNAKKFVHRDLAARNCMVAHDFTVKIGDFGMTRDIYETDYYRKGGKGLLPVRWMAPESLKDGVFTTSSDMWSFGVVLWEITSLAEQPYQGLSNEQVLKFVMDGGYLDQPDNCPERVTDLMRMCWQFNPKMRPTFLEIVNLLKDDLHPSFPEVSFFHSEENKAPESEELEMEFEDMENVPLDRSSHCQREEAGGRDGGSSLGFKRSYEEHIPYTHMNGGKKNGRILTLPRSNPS

As to `CC1(C)CCN(c2nc3c(c(Nc4cc(C5CC5)[nH]n4)n2)CCC3)CC1`, the pIC50 in data set [1] is 6.69. In the case of `Cc1cc(Nc2nc(N3CCCCCC3)nc3c2CCC3)n[nH]1`, in data set [1], the pIC50 is 5.70. Same read-out and setting: with `OCC1CCCN(c2nc3c(c(Nc4cc(C5CC5)[nH]n4)n2)CCC3)C1` (centres undefined) the figure was 7.05; with `CC1CCN(c2nc(Nc3cc(C4CC4)[nH]n3)c3c(n2)C(C)(C)CC3)CC1`, 5.82. Regarding `c1c(Nc2nc(N3CCCCC3)nc3c2CCC3)n[nH]c1C1CC1`, in data set [1], the pIC50 is 7.49. Regarding `c1c(Nc2nc(N3CCCCCC3)nc3c2CCC3)n[nH]c1C1CC1`, in data set [1], the pIC50 is 8.00. On the same count and under the same terms, with `O=C(O)C1CCN(c2nc3c(c(Nc4cc(C5CC5)[nH]n4)n2)CCC3)CC1` the figure was less than 6.00; with `c1c(Nc2nc(N3CC4CCC3C4)nc3c2CCC3)n[nH]c1C1CC1` (centres undefined), 7.39; with `CC1CCN(c2nc(Nc3cc(C4CC4)[nH]n3)c3c(n2)C2CCC3C2)CC1` (centres undefined), 5.92. For `Cc1ccc(CNc2nc3c(c(Nc4cc(C5CC5)[nH]n4)n2)CCC3)cc1`, in data set [1], the pIC50 was 6.83. On the same count and under the same terms, next, `c1ccc(CNc2nc3c(c(Nc4cc(C5CC5)[nH]n4)n2)CCC3)cc1`: 6.57. Still for that read-out and setting: next, `CCOC(=O)C1CCN(c2nc3c(c(Nc4cc(C5CC5)[nH]n4)n2)CCC3)CC1`: 7.46; `N#CC1CCN(c2nc3c(c(Nc4cc(C5CC5)[nH]n4)n2)CCC3)CC1`: 6.91.

As for `c1ccc(-c2nc3c(c(Nc4cc(C5CC5)[nH]n4)n2)CCC3)cc1`, the pIC50 in data set [1] is 7.01.

Turning to `CC1CCN(c2nc(Nc3cc(C4CC4)[nH]n3)c3c(n2)C(F)(F)CC3)CC1`, in data set [1], the pIC50 is 6.10. On to `c1ccc(-c2cc(Nc3nc(N4CCCCCC4)nc4c3CCC4)n[nH]2)cc1`, for which the negative logarithm of the IC50 (pIC50) in [1] is less than 6.00. Take `CC1CCN(c2nc(Nc3cc(C4CC4)[nH]n3)c3c(n2)C2(CCCC2)CC3)CC1`: the pIC50 in data set [1] was 5.55. The same measure, in the same setting: with `c1c(Nc2nc(N3CCCCCCC3)nc3c2CCC3)n[nH]c1C1CC1` the figure was 7.24. The same measure, in the same setting: next, `CC(C)(C)c1cc(Nc2nc(N3CCCCC3)nc3c2CCC3)n[nH]1`: 6.60; `c1c(Nc2nc(N3CCNCC3)nc3c2CCC3)n[nH]c1C1CC1`: less than 6.00; `CC(C)(C)c1cc(Nc2nc(N3CCCCCC3)nc3c2CCC3)n[nH]1`: 6.25. Take `CC1CCN(c2nc3c(c(Nc4cc(C(C)(C)C)[nH]n4)n2)CCC3)CC1`: the pIC50 in data set [1] was 6.52. For the compound `CCN(CC)C(=O)C1CCCN(c2nc3c(c(Nc4cc(C5CC5)[nH]n4)n2)CCC3)C1` (centres undefined), the pIC50 in data set [1] was 6.74.

In the case of `Cc1cc(Nc2nc(N3CCC(C)CC3)nc3c2CCC3)n[nH]1`, the IC50 result in [1] was “Not Active”. On to `CC1CCN(c2nc3c(c(Nc4cc(C5CC5)[nH]n4)n2)CCC3)CC1`, for which the half-life is 51 min in data set [2] and 52.2 min in [3]. The Vd in [4] came to 4.37 L/kg. Besides, the pIC50 in data set [5] is 5.78; in [6], 6.96; in data set [1], 7.70; in data set [7] it was 6.47; in data set [8] it was 5.66; in [9] it was 6.15. Moreover, the negative-log IC50 (pIC50) in data set [12] was 6.46; in data set [14] it was 6.74; in [15] it was 5.52. Moreover, in data set [10], the bioavailability amounted to 11.3%. In [11], this compound gave a clearance of 59.1 mL/min/kg. In data set [13], this compound returned a C0 of 1050 ng/mL. As to `CCOC(=O)C1CCCN(c2nc3c(c(Nc4cc(C(C)(C)C)[nH]n4)n2)CCC3)C1` (centres undefined), the pIC50 in data set [1] was 6.97.

On to `CC1CCN(c2nc3c(c(Nc4cc(-c5ccccc5)[nH]n4)n2)CCC3)CC1`, for which the pIC50 in data set [1] is less than 6.00. For `CN(C)CCN(C)c1nc2c(c(Nc3cc(C4CC4)[nH]n3)n1)CCC2`, the pIC50 in [1] was less than 6.00.

Regarding `CCOC(=O)C1CCCN(c2nc3c(c(Nc4cc(C)[nH]n4)n2)CCC3)C1` (centres undefined), the pIC50 in [1] is 6.01. On to `Cc1cc(Nc2nc(N3CCCCC3)nc3c2CCC3)n[nH]1`, for which, in data set [1], the pIC50 is 6.35.

The values above are taken from ChEMBL document CHEMBL3407404, “Cyclopentyl-pyrimidine based analogues as novel and potent IGF-1R inhibitor” (Eur J Med Chem, 2015).
